Patent US11684599B2, “Very-long-chain polyunsaturated fatty acids, elovanoid hydroxylated derivatives, and methods of use” (Board of Supervisors of Louisiana State University and …, priority 2017, dated 2023)

Legend:
Format in all cases: cell-based, rat
[1] = tested on: cerebral-cortical mixed neuronal cells and hippocampal neurons; assay: NMDA excitotoxicity of neurons in culture, cell viability; details: for neuroprotection against NMDA excitotoxicity (Hoechst): 500 nM, DIV 12; for neuroprotection against NMDA excitotoxicity (Hoechst) / synergy with NPD1 in neuroprotection against NMDA excitotoxicity: NMDA 100 μM; for neuroprotection against NMDA excitotoxicity (Hoechst) / synergy with NPD1 in neuroprotection against NMDA excitotoxicity / NMDA-induced neuronal death: 12 h; for synergy with NPD1 in neuroprotection against NMDA excitotoxicity: ELV 200 nM with NPD1 100 nM; for NMDA-induced neuronal death: ELV (Na or Me) 200 nM or 500 nM added along with NMDA 25, 50 or 100 μM; for neuroprotection with MK801 and NPD1 added together: compared with ELV-N32-Na or ELV-N32-Me alone
Source text: (§1) Primary cultures of cortical and hippocampal neurons were harvested from 18-day-old embryos (E18) taken from timed-pregnant, two-month-old Sprague-Dawley (SD) rats (Charles River Lab., Wilmington, Mass.). Briefly, timed-pregnant SD rats were euthanized and embryos were collected in sterile conditions. Embryonic brains were dissected out by forceps on ice and placed in a petri dish containing ice-cold Hank's Balanced Salt Solution (HBSS) (GIBCO). Meninges were removed under a dissecting microscope and cortical tissues were chopped into small pieces with micro-spring scissors. These tissues were transferred to 15 ml tubes containing trypsin-EDTA (0.025% in HBSS) and DNase I. The tubes were incubated in 37° C. chamber for 15 mins and were agitated every 5 mins. After stopping the trypsinization with 5 ml 10% FBS, these tissues were triturated 15 times with a fire polished Pasteur pipet. Cell clumps were left to settle for 2 mins and the supernatant was transferred to a 15 ml Eppendorf tube. The supernatant was filtered through a 70 μm pore-sized filter (Corning cell strainer) and centrifuged for 5 mins at 1000 rpm. The cells were then resuspended in Neurobasal medium (GIBCO) containing 2% B27 (GIBCO) and 2% N2 (GIBCO) supplements, along with 0.5 mM glutamine, 50 U/ml penicillin/streptomycin.
(§2) Cells were counted using a Neubauer hemocytometer. 1×10^6 cells were seeded on poly-D-lysine-coated 12 well cell culture dish (CORNING) and cultured in incubator (37° C., 5% CO2). Culture medium was first replaced after 24 h, then half of the medium was replaced with fresh medium every three days. As a result, approximately, 90% purity of neurons was obtained as determined by class-III-β tubulin, GFAP and Hoechst 33258 staining. Cells were maintained in culture for about 2 weeks until they were exposed to uncompensated oxidative stress, OGD, or NMDA excitotoxicity.
(§3) After 90 mins of OGD exposure, cells were returned to the original medium (Neurobasal medium (GIBCO) containing 2% B27 (GIBCO) and 2% N2 (GIBCO) supplements, along with 0.5 mM glutamine, 50 U/ml penicillin/streptomycin) and placed in a normoxic chamber (37° C., 5% CO2) for 2 h. Then the medium was changed with medium containing either ELV-N32 or ELV-N34 [500 nM] and maintained in a normoxic chamber (37° C., 5% CO2) for 12 h, after which cells were sampled and assayed for cell viability using different methods as previously described (25-28). Cerebral cortical mixed neuronal cells or hippocampal cells in culture were exposed to either NMDA or uncompensated oxidative stress (UOS) for 12 h by addition of either NMDA (25 μM, 50 μM, or 100 μM) concentration or by the addition of TNFα (10 ng/mL) and H2O2 (50 μM, 100 μM, or 200 μM). Cell viability and neuroprotection in the presence of ELV-N32, ELV-N34, 32:6, or 34:6 were assayed after 12 h.
(§4) Cells were washed with 1× Dulbecco's Phosphate Buffered Saline (DPBS) containing no calcium or magnesium (GIBCO) and fixed for 10 mins using ice-cold 4% paraformaldehyde (PFA) followed by 15 mins incubation in 100% methanol. Cells were washed with 1× Phosphate Buffered Saline (PBS) pH 7.4 (GIBCO) and incubated in PBS containing 20 μM Hoechst 33258 (Molecular Probes) for 20 mins. Cells were then washed 3 times with 1×PBS and stored in 1×PBS at 4° C. until they were imaged for microscopy.
One 4×4 tile mosaic was acquired from the center of each well using a Zeiss 510 Meta laser confocal microscope and LSM 510 Meta software. Images were imported into image analysis software ImageJ (National Institutes of Health, Bethesda, Md.) and batch processed using custom macros. An Otsu auto threshold was applied to each image of Hoechst-stained nuclei, and the area of each detected object was recorded. Objects with areas <10 μm^2 were excluded from analysis. To estimate percentage non-pyknotic nuclei, a size cutoff value was chosen above which objects were assumed to be non-pyknotic. […]

[2] = tested on: cerebral cortical mixed neuronal cells or hippocampal neurons; assay: Oxygen glucose deprivation (OGD) of neurons in culture, cell viability; details: for neuroprotection against OGD-induced neuronal cell death: 200 nM, 500 nM or 1 μM added after 90 mins OGD and 2 h reoxygenation, Hoechst, calcein or MTT
Source text: as §1, §2
An in vitro oxygen glucose deprivation (OGD) model was established. Primary cortical neurons were cultured from SD rat embryos. On day in vitro (DIV) 12, cells were washed with phosphate-buffered saline and incubated in glucose-free Neurobasal medium (GIBCO) for 30 mins. The cells were then placed in a modular incubator chamber and incubated in an anaerobic chamber (95% N2, 5% CO2) at 37° C. for 90 mins for OGD.
as §3, with “Then the medium was changed with medium containing either ELV-N32 or ELV-N34 [500 nM] and maintained in” left out
as §4
One 4×4 tile mosaic was acquired from the center of each well using a Zeiss 510 Meta laser confocal microscope and LSM 510 Meta software. Images were imported into image analysis software ImageJ (National Institutes of Health, Bethesda, Md.) and batch processed using custom macros. […]

[3] = tested on: cerebral-cortical mixed neuronal cells; assay: Uncompensated oxidative stress (TNFα plus H2O2) of neurons in culture; details: 200 nM; TNFα 10 ng/mL and H2O2 (50, 100 or 200 μM), 12 h
Source text: as §1
as §2, with “Cells were maintained in culture for about 2 weeks until they were exposed to uncompensated oxidative stress, OGD, or NMDA excitotoxicity.” left out
One 4×4 tile mosaic was acquired from the center of each well using a Zeiss 510 Meta laser confocal microscope and LSM 510 Meta software. […] An Otsu auto threshold was applied to each image of Hoechst-stained nuclei, and the area of each detected object was recorded. […]

[4] = 250 nM added after OGD exposure
[5] = 500 nM, 90 min OGD, hippocampal (DIV 12) or cortical (DIV 28) culture

Row | Compound | neuroprotection after OGD by VLC-PUFA precursor [2, 4] | neuroprotection after OGD by VLC-PUFA precursor [2, 5] | neuroprotection against NMDA excitotoxicity (Hoechst) [1] | neuroprotection against OGD-induced neuronal cell death [2] | synergy with NPD1 in neuroprotection against NMDA excitotoxicity [1] | NMDA-induced neuronal death [1] | neuroprotection with MK801 and NPD1 added together [1] | neuroprotection against uncompensated oxidative stress [3] | other results
1 | CC/C=C\C/C=C\C/C=C\C/C=C\C/C=C\C/C=C\CCCCCCCCCCCCCCC(=O)O [34:6n3, (16Z,19Z,22Z,25Z,28Z,31Z)-tetratriaconta-16,19,22,25,28,31-hexaenoic acid] | elicit neuroprotection | showed neuroprotection |  |  |  |  |  |  | NMDA receptor-mediated excitotoxicity ([1]; precursor at 500 nM): attenuates NMDA receptor-mediated excitotoxicity
2 | CC/C=C\C/C=C\C/C=C\C/C=C\C/C=C\C/C=C\CCCCCCCCCCCCC(=O)O [32:6n3, (14Z,17Z,20Z,23Z,26Z,29Z)-dotriaconta-14,17,20,23,26,29-hexaenoic acid] | provide neuroprotection | showed neuroprotection |  |  |  |  |  |  | NMDA excitotoxicity ([1]; precursor at 250 nM): attenuate NMDA excitotoxicity
3 | CC/C=C\C[C@H](O)\C=C/C=C/C=C/[C@H](O)C/C=C\C/C=C\CCCCCCCCCCCCCCC(=O)OC [ELV-N34-Me, methyl (16Z,19Z,22R,23E,25E,27Z,29S,31Z)-22,29-dihydroxytetratriaconta-16,19,23,25,27,31-hexaenoate] |  |  | neuroprotection elicited | elicited neuroprotection |  |  |  |  | 
4 | CC/C=C\C[C@H](O)\C=C/C=C/C=C/[C@H](O)C/C=C\C/C=C\CCCCCCCCCCCCC(=O)[O-].[Na+] [ELV-N32-Na, sodium (14Z,17Z,20R,21E,23E,25Z,27S,29Z)-20,27-dihydroxydotriaconta-14,17,21,23,25,29-hexaenoate] |  |  | neuroprotection elicited | elicited neuroprotection | showed synergy | compensated for | improved the neuroprotection | evoked neuroprotection | 
5 | CC/C=C\C[C@H](O)\C=C/C=C/C=C/[C@H](O)C/C=C\C/C=C\CCCCCCCCCCCCCCC(=O)[O-].[Na+] [ELV-N34-Na, sodium (16Z,19Z,22R,23E,25E,27Z,29S,31Z)-22,29-dihydroxytetratriaconta-16,19,23,25,27,31-hexaenoate] |  |  |  | elicited neuroprotection |  |  |  | neuroprotection elicited | 
6 | CC/C=C\C[C@H](O)\C=C/C=C/C=C/[C@H](O)C/C=C\C/C=C\CCCCCCCCCCCCC(=O)OC [ELV-N32-Me, methyl (14Z,17Z,20R,21E,23E,25Z,27S,29Z)-20,27-dihydroxydotriaconta-14,17,21,23,25,29-hexaenoate] |  |  |  | elicited neuroprotection | showed synergy | compensated for | improved the neuroprotection | evoked neuroprotection | relative potency of the combination with NPD1 ([1]; ELV-N32-Me plus NPD1 versus ELV-N32-Na plus NPD1): more potent
